{"source": "patent US20090117083A1", "about": "“IMMUNOMODULATORY ALKALOIDS” (M N L PHARMA LIMITED, priority 2004, published 2009)", "key": {"[1]": {"molecular_target": "rabbit gut mucosa α-D-glucosidase", "test": "Inhibition of rabbit gut mucosa α-D-glucosidase", "assay_type": "biochemical"}, "[2]": {"system": "B16G/F10 melanoma cells", "test": "B16/F10 melanoma lung colonies in mice", "assay_type": "in vivo, C57BL/6 mice", "conditions": "for Colony Count: Day 21, mean ± s.e.m.; for % Reduction: versus vehicle", "procedure": "There were 5 treatment groups in the study, with 6 mice arbitrarily allocated to each group. The treatment groups were as follows:\nThe dose volume was the daily intake for all animals. Test substances were administered to mice in Groups 2, 3, 4 and 5, as solutions in sterile water for 41 h 32 min prior to tumour cell injection (Day 0 is the day of tumour cell injection).\nMice were injected intravenously, via a tail vein, with 0.1 ml of a suspension of B16G/F10 melanoma cells (approximately 1×10^5 cells/mouse) on Day 0.\nAll dosing solutions were prepared on the first day of dosing (Day −2) and were kept at room temperature.\nMice: Female C57BL/6 mice were supplied and delivered by Charles River UK Limited. The animals were approximately 6-8 weeks of age on arrival. The animals were acclimatized for 29 days prior to the start of the study, and the body weights at the start of dosing were in the range 18-23 g. During the study, the animals were housed in groups of up to 6 in pediatric filter-topped cages with sawdust bedding (autoclaved for sterility). The room and cages were cleaned at regular intervals each week to maintain hygiene. The mice were fed an expanded rodent diet of RM1(E) SQC (batch number 3822; Special Diets Services, Witham, UK) ad libitum and allowed access to sterilized water (N.V. Nutricia, Zoetermeer, The Netherlands). For Groups 2, 3, 4 and 5, the drinking water also contained the appropriate level of test substance for the duration of the dosing period. […] During the acclimatization and study period the temperature range in the rooms was 18-22° C. and the humidity range was 44-79%.\nTumour challenge: B18F10 murine tumour cells (Shrayer D, Bogaars H. Hearing V. J. Maizel A. & Wanebo H. Further characterization of a clinically relevant model of melanoma metastasis and an effective vaccine. Cancer Immunology, Immunotherapy 1995: 40; 277-282) were harvested from sub-confluent cultures growing in vitro, using minimum trypsination. They were washed in sterile phosphate buffered saline (PBS) and the number of viable cells determined. Cells were resuspended in sterile PBS at a concentration of […]. The mice were intravenously injected, via a tail vein, with 0.1 ml of cell suspension (i.e. approximately 1×10^5 cells/mouse) on Day 0. The mice were examined daily for signs of laboured breathing or distress due to extensive metastatic disease. Mice were exposed to the appropriate test substance for 41 h 32 min prior to tumour cell injection (from Day −2 to Day 0). Following tumour cell implant, the test substances were removed, and animals in all groups received drinking water alone for the remainder of the study.\nSampling and analysis: The animals were terminated on Day 21 (21 days after injection of the tumour cells). Blood samples were taken from 3 mice from each group on the day of termination. Animals were anaesthetized with carbon dioxide and blood samples of maximal volume taken by cardiac puncture and collected in plain tubes. Samples were left to clot at room temperature for a minimum of 1 h prior to serum removal, Serum samples were stored at approximately −70° C. prior to analysis. Immediately after performing the bleeds, the spleens were removed from the 3 selected mice. The spleens from these mice were pooled in a petri dish with approximately 3-5 ml of RPMI 1640 tissue culture medium (batch number 3092202; Invitrogen, Paisley, UK) containing 0.52% penicillin/streptomycin (Pen/Strep; batch number 44K2412; Sigma Aldrich, Poole, UK) prior to splenocyte isolation. The spleens from each group were placed in a glass homogeniser with an additional 10-15 ml of medium and homogenised until opaque. The suspension was then placed in a 50 ml centrifuge tube. On occasions when there was significant cell debris, this was allowed to settle before removing the suspension and placing in a fresh tube. The homogenate was then centrifuged at approximately 200×‘g’ for 5 min at approximately 4° C."}, "[3]": {"molecular_target": "T1, α-D-glucosidase (Oryza sativa subsp. japonica, UniProt Q653V7)", "T1 construct": "purchased Sigma", "T1 sequence (Q653V7 34-885)": "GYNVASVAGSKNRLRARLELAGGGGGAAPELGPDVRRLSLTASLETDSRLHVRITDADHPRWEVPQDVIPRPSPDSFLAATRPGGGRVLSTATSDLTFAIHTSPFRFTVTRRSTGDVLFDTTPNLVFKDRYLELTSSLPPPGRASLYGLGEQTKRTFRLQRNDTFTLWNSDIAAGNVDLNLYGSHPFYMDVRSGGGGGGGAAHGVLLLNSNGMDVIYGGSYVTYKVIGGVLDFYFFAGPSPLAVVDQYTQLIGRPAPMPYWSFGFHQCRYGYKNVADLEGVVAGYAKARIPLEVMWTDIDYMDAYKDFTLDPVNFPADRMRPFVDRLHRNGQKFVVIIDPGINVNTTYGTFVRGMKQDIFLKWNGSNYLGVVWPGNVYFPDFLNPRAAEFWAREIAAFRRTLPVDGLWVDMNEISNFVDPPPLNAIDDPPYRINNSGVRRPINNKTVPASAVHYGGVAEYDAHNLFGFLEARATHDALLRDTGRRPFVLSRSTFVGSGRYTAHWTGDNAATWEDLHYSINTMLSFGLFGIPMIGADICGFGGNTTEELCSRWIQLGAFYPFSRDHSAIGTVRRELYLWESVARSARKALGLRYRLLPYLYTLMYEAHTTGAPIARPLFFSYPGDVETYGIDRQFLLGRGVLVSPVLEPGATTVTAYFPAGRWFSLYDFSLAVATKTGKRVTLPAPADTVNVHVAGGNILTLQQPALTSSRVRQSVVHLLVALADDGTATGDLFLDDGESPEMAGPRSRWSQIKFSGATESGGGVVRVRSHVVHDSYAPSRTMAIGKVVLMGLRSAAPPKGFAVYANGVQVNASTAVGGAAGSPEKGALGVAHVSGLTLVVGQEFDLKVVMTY", "test": "Glycosidase inhibition: α-D-glucosidase, rice", "assay_type": "biochemical, rice (Oryza sativa)", "conditions": "1 mg/ml; read-out: % inhibition, gluc (rice)", "summary_of_the_method": "(§1)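 Enzymes assayed at 20 °C in McIlvaine citrate/phosphate buffer at each enzyme's optimum pH with p-nitrophenyl substrate at 3.57 mM final. Reactions stopped with 0.4M glycine pH 10.4 within the exponential phase; endpoint absorbance at 405 nm against water blanks.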"}, "[4]": {"molecular_target": "T2, α-D-galactosidase (Coffea arabica, UniProt Q42656)", "T2 construct": "purchased Sigma", "T2 sequence (Q42656 16-378)": "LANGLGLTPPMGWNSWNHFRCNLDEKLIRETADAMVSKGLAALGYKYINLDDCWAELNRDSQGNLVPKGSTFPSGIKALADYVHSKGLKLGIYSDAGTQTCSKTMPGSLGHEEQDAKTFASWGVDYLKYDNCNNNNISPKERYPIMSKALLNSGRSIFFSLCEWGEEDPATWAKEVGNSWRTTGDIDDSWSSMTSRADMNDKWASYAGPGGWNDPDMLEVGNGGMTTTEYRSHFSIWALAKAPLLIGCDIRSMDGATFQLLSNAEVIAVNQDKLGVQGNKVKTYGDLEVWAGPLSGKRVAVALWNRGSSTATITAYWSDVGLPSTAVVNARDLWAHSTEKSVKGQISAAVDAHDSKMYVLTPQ", "test": "Glycosidase inhibition: α-D-galactosidase", "assay_type": "biochemical, Green coffee beans (Coffea sp.)", "conditions": "read-out: % inhibition, galactosidase", "procedure": "All enzymes were purchased from Sigma, as were the appropriate p-nitrophenyl substrates. Assays were carried out in microtitre plates. Enzymes were assayed in 0.1M citric acid/0.2M di-sodium hydrogen phosphate (McIlvaine) buffers at the optimum pH for the enzyme. All assays were carried out at 20° C. For screening assays the incubation assay consisted of 10 μl of enzyme solution, 10 μl of inhibitor solution (made up in water) and 50 μl of the appropriate 5 mM p-nitrophenyl substrate (3.57 mM final conc.) made up in McIlvaine buffer at the optimum pH for the enzyme.\nThe reactions were stopped with 0.4M glycine (pH 10.4) during the exponential phase of the reaction, which was determined at the beginning of the assay using blanks with water, which were incubated for a range of time periods to measure the reaction rate using 5 mM substrate solution. Endpoint absorbances were read at 405 nm with a Biorad microtitre plate reader (Benchmark). Water was substituted for the inhibitors in the blanks."}, "[5]": {"system": "B16-F10 tumour cells", "test": "Control of lung metastasis in mice (B16-F10)", "assay_type": "in vivo, C57/bl6 mice", "conditions": "50 mg/kg s/c on days 2 and 4; lungs on day 14", "procedure": "Mice (C57/bl6 under i/p ketamine anaesthesia) were challenged i/v (tail vein) with 5×10^4 B16-F10 tumour cells in a final volume of 100 μl per mouse on day 0. Test compounds (50 mg/kg in 200 μl sterile non-pyrogenic saline) were administered sic (right flank) on days 2 and 4. On day 14 the mice were sacrifices and the lungs dissected and stained in Indian ink solution (150 ml bidistilled water, 30 ml India Ink, 4 drops NH4OH) for 10 minutes then fixed for at least 24 hr in Fakete's solution (90 ml 37% formaldehyde, 900 ml 70% EtOH and 45 ml glacial acetic acid). The metastases in the stained and fixed lungs could then be visualized, counted and photographed."}, "[6]": {"system": "Naringinase", "test": "Glycosidase inhibition: Naringinase", "assay_type": "biochemical, Penecillium decumbens", "conditions": "1 mg/ml", "summary_of_the_method": "as §1"}, "[7]": {"system": "β-D-glucosidase", "test": "Glycosidase inhibition: β-D-glucosidase, almond", "assay_type": "biochemical, Almonds (Prunus sp.)", "summary_of_the_method": "as §1"}, "[8]": {"molecular_target": "T3, rabbit small intestine sucrase (Oryctolagus cuniculus, UniProt P07768)", "T3 construct": "from tissue; host or cells: rabbit small intestine", "T3 sequence (P07768 1008-1827 limits assumed)": "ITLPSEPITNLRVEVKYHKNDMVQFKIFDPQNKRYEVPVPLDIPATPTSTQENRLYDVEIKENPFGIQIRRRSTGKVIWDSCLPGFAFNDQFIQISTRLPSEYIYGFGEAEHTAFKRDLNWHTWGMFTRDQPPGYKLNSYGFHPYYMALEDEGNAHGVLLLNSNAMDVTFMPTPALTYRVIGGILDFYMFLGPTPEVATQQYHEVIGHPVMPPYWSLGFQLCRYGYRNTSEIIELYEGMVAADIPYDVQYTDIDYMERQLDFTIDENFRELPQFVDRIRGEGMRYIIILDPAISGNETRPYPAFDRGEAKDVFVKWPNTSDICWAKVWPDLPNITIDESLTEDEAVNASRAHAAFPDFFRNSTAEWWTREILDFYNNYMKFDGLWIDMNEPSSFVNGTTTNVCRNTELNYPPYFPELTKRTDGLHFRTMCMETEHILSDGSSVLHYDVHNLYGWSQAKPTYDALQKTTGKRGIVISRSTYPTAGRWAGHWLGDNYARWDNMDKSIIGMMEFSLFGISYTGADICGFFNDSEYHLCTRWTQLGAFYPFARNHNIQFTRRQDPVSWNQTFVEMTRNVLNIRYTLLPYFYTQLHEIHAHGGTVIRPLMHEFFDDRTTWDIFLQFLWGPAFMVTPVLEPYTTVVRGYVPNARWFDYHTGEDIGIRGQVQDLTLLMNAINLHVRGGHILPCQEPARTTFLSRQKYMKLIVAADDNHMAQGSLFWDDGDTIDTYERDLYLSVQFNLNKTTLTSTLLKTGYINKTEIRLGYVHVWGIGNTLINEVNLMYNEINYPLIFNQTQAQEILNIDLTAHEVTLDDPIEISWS", "T3 sequence (P07768 2-1007 partner limits assumed)": "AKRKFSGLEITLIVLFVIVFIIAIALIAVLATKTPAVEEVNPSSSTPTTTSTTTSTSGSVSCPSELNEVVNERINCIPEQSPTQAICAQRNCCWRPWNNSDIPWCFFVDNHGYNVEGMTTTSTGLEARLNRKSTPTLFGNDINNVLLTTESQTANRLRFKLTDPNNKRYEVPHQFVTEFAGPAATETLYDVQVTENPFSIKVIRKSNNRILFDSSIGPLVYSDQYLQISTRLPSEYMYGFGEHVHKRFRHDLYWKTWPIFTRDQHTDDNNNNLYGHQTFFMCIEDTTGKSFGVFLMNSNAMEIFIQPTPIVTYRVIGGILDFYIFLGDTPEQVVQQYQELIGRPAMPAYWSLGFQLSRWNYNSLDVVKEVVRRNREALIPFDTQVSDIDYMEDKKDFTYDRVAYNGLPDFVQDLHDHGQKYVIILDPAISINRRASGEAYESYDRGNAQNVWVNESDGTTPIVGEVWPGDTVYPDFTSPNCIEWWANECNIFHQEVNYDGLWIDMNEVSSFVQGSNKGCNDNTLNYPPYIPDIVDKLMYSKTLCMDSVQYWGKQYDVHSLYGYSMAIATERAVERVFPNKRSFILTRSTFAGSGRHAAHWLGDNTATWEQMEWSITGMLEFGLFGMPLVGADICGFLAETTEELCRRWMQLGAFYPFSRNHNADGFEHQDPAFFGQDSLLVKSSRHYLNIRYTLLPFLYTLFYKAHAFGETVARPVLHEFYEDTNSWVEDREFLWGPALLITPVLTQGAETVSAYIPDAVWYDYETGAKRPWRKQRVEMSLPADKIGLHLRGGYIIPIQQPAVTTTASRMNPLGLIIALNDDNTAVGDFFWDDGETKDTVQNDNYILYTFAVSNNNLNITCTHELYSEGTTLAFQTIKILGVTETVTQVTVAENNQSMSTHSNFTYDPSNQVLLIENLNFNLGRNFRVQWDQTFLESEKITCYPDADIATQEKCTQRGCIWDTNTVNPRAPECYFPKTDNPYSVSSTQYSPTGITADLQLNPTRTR", "test": "Inhibition of rabbit small intestine sucrase", "assay_type": "biochemical", "conditions": "700 μM"}, "[9]": {"system": "N-acetyl-β-D-glucosaminidase", "test": "Glycosidase inhibition: N-acetyl-β-D-glucosaminidase", "assay_type": "biochemical, Bovine", "conditions": "1 mg/ml", "summary_of_the_method": "as §1"}}, "data": [{"smiles": "OC[C@@H]1[C@@H](O)[C@H](O)[C@H]2[C@H](O)[C@@H](O)CN21", "note": "[casuarine (8)]", "values": [{"measurement": "IC50", "setting": "[1]", "value": 210, "unit": "µM"}, {"measurement": "Colony Count", "setting": "[2]; 0.03 μg/ml in drinking water before tumour cell injection", "value": "17.00 ± 6.97"}, {"measurement": "% Reduction", "setting": "[2]; 0.03 μg/ml in drinking water", "value": 76, "unit": "%"}, {"measurement": "Colony Count", "setting": "[2]; 3 μg/ml in drinking water before tumour cell injection", "value": "35.40 ± 7.47"}, {"measurement": "% Reduction", "setting": "[2]; 3 μg/ml in drinking water", "value": 49, "unit": "%"}, {"measurement": "Colony Count", "setting": "[2]; 0.3 mg/ml in drinking water before tumour cell injection", "value": "38.50 ± 11.49"}, {"measurement": "% Reduction", "setting": "[2]; 0.3 mg/ml in drinking water", "value": 45, "unit": "%"}, {"measurement": "inhibition at 1000 µg/mL", "setting": "[3]", "value": 76, "unit": "%"}, {"measurement": "inhibition at 1000 µg/mL", "setting": "[4]", "value": 4, "unit": "%"}, {"measurement": "Metastatic morphology", "setting": "[5]", "value": "Metastasis restricted to apical tip of lung"}, {"measurement": "% inhibition, Naringinase", "setting": "[6]", "value": "−2", "unit": "%"}, {"measurement": "inhibition of almond β-D-glucosidase", "setting": "[7]; 800 μM", "value": "not being inhibitory"}, {"measurement": "% inhibition, glucosidase", "setting": "[7]; 1 mg/ml", "value": 0, "unit": "%"}, {"measurement": "inhibition of rabbit small intestine sucrase", "setting": "[8]", "value": "inhibited"}, {"measurement": "% inhibition, N-acetyl-β-gluc", "setting": "[9]", "value": 14, "unit": "%"}]}]}
